Measurements reported in ChEMBL document CHEMBL3351415, “Synthesis, antimicrobial and anti-biofilm activities of novel Schiff base analogues derived from methyl-12-aminooctadec-9-enoate” (Bioorg Med Chem Lett, 2014).
≈ marks a conversion by molar mass, not a printed value.

Key:
Micrococcus luteus = assay: Antimicrobial activity against Micrococcus luteus MTCC 2470 incubated for 24 hrs by well diffusion method; type: functional; settings: MTCC 2470, 24 h
Staphylococcus aureus [1] = assay: Antimicrobial activity against Staphylococcus aureus MTCC 96 incubated for 24 hrs by well diffusion method; type: functional; settings: MTCC 96, 24 h
Staphylococcus aureus [2] = assay: Antimicrobial activity against Staphylococcus aureus MLS-16 MTCC 2940 incubated for 24 hrs by well diffusion method; type: functional; settings: MLS-16 MTCC 2940, 24 h
Bacillus subtilis [3] = assay: Antimicrobial activity against Bacillus subtilis MTCC 121 incubated for 24 hrs by well diffusion method; type: functional; settings: MTCC 121, 24 h
Escherichia coli = assay: Antimicrobial activity against Escherichia coli MTCC 739 incubated for 24 hrs by well diffusion method; type: functional; settings: MTCC 739, 24 h
Pseudomonas aeruginosa = assay: Antimicrobial activity against Pseudomonas aeruginosa MTCC 2453 incubated for 24 hrs by well diffusion method; type: functional; settings: MTCC 2453, 24 h
[4] = Antimicrobial activity against Klebsiella […] incubated for 24 hrs by well diffusion method; type: functional, Raoultella planticola
Staphylococcus aureus [5] = assay: Bactericidal activity against Staphylococcus aureus MTCC 96 incubated for 24 hrs; type: functional; settings: MTCC 96, 24 h
Staphylococcus aureus [6] = assay: Bactericidal activity against Staphylococcus aureus MLS-16 MTCC 2940 incubated for 24 hrs; type: functional; settings: MLS-16 MTCC 2940, 24 h
Bacillus subtilis [7] = assay: Bactericidal activity against Bacillus subtilis MTCC 121 incubated for 24 hrs; type: functional; settings: MTCC 121, 24 h
Staphylococcus aureus [8] = assay: Anti-biofilm activity against Staphylococcus aureus MTCC 96 assessed as inhibition of biofilm formation incubated for 24 hrs by crystal violet staining based modified biofilm inhibition assay; type: functional, organism-based; settings: MTCC 96, 24 h
Staphylococcus aureus [9] = assay: Anti-biofilm activity against Staphylococcus aureus MLS-16 MTCC 2940 assessed as inhibition of biofilm formation incubated for 24 hrs by crystal violet staining based modified biofilm inhibition assay; type: functional, organism-based; settings: MLS-16 MTCC 2940, 24 h
Bacillus subtilis [10] = assay: Anti-biofilm activity against Bacillus subtilis MTCC 121 assessed as inhibition of biofilm formation incubated for 24 hrs by crystal violet staining based modified biofilm inhibition assay; type: functional, organism-based; settings: MTCC 121, 24 h

| Compound | MIC (Micrococcus luteus) | MIC (Staphylococcus aureus [1]) | MIC (Staphylococcus aureus [2]) | MIC (Bacillus subtilis [3]) | MIC (Escherichia coli) | MIC (Pseudomonas aeruginosa) | MIC [4] | MBC (Staphylococcus aureus [5]) | MBC (Staphylococcus aureus [6]) | MBC (Bacillus subtilis [7]) | IC50 (Staphylococcus aureus [8]) | IC50 (Staphylococcus aureus [9]) | IC50 (Bacillus subtilis [10]) |
| --- | --- | --- | --- | --- | --- | --- | --- | --- | --- | --- | --- | --- | --- |
| CCCCCCC(C/C=C\CCCCCCCC(=O)OC)/N=C\c1ccc(C#N)cc1 (stereo not given) | > 300 µM | > 300 µM | > 300 µM | > 300 µM | > 300 µM | > 300 µM | > 300 µM | – | – | – | – | – | – |
| CCCCCCC(C/C=C\CCCCCCCC(=O)OC)/N=C\c1ccccc1O (stereo not given) | > 300 µM | > 300 µM | > 300 µM | > 300 µM | > 300 µM | > 300 µM | > 300 µM | – | – | – | – | – | – |
| CCCCCCC(C/C=C\CCCCCCCC(=O)OC)/N=C\c1ccc(OC)cc1 (stereo not given) | > 300 µM | 18.1 µM (≈ 7.78 µg/mL) | 36.3 µM (≈ 15.6 µg/mL) | 18.1 µM (≈ 7.78 µg/mL) | > 300 µM | > 300 µM | > 300 µM | 36.3 µM (≈ 15.6 µg/mL) | 36.3 µM (≈ 15.6 µg/mL) | 36.3 µM (≈ 15.6 µg/mL) | 12.1 µM | 23.7 µM | 7.9 µM |
| CCCCCCC(C/C=C\CCCCCCCC(=O)OC)/N=C\c1cccc(C)c1 (stereo not given) | > 300 µM | 151 µM (≈ 62.6 µg/mL) | 75.5 µM (≈ 31.2 µg/mL) | 75.5 µM (≈ 31.2 µg/mL) | > 300 µM | > 300 µM | > 300 µM | – | – | – | – | – | – |
| CCCCCCC(C/C=C\CCCCCCCC(=O)OC)/N=C\c1ccc(O)c(OC)c1 (stereo not given) | > 300 µM | 17.5 µM (≈ 7.8 µg/mL) | 17.5 µM (≈ 7.8 µg/mL) | 17.5 µM (≈ 7.8 µg/mL) | > 300 µM | > 300 µM | > 300 µM | 35 µM (≈ 15.6 µg/mL) | 35 µM (≈ 15.6 µg/mL) | 35 µM (≈ 15.6 µg/mL) | 9.4 µM | 8 µM | 10.3 µM |
| O=C(O)c1cn(C2CC2)c2cc(N3CCNCC3)c(F)cc2c1=O [CIPROFLOXACIN] | 2.7 µM (≈ 0.895 µg/mL) | 2.7 µM (≈ 0.895 µg/mL) | 2.7 µM (≈ 0.895 µg/mL) | 2.7 µM (≈ 0.895 µg/mL) | 2.7 µM (≈ 0.895 µg/mL) | 2.7 µM (≈ 0.895 µg/mL) | 2.7 µM (≈ 0.895 µg/mL) | 2.7 µM (≈ 0.895 µg/mL) | 5.7 µM (≈ 1.89 µg/mL) | 5.7 µM (≈ 1.89 µg/mL) | 0.99 µM | – | 1.53 µM |
| CCCCCCC(C/C=C\CCCCCCCC(=O)OC)/N=C\c1c[nH]c2ccccc12 (stereo not given) | > 300 µM | 17.8 µM (≈ 7.81 µg/mL) | 17.8 µM (≈ 7.81 µg/mL) | 35.6 µM (≈ 15.6 µg/mL) | > 300 µM | > 300 µM | > 300 µM | 35.6 µM (≈ 15.6 µg/mL) | 35.6 µM (≈ 15.6 µg/mL) | 71.2 µM (≈ 31.2 µg/mL) | 7.3 µM | 9.5 µM | 21.9 µM |
| CCCCCCC(C/C=C\CCCCCCCC(=O)OC)/N=C\c1ccc(O)cc1 (stereo not given) | > 300 µM | 18.7 µM (≈ 7.77 µg/mL) | 18.7 µM (≈ 7.77 µg/mL) | 37.5 µM (≈ 15.6 µg/mL) | > 300 µM | > 300 µM | > 300 µM | 37.5 µM (≈ 15.6 µg/mL) | 37.5 µM (≈ 15.6 µg/mL) | 75.1 µM (≈ 31.2 µg/mL) | 10.1 µM | 9.1 µM | 19.5 µM |
| CCCCCCC(C/C=C\CCCCCCCC(=O)OC)/N=C\c1ccc(Cl)cc1Cl (stereo not given) | > 300 µM | > 300 µM | > 300 µM | > 300 µM | > 300 µM | > 300 µM | > 300 µM | – | – | – | – | – | – |
| CCCCCCC(C/C=C\CCCCCCCC(=O)OC)/N=C\c1ccc(C)cc1 (stereo not given) | > 300 µM | > 300 µM | > 300 µM | > 300 µM | > 300 µM | > 300 µM | > 300 µM | – | – | – | – | – | – |
| CCCCCCC(C/C=C\CCCCCCCC(=O)OC)/N=C\c1cccc([N+](=O)[O-])c1 (stereo not given) | > 300 µM | > 300 µM | > 300 µM | > 300 µM | > 300 µM | > 300 µM | > 300 µM | – | – | – | – | – | – |
| CCCCCCC(C/C=C\CCCCCCCC(=O)OC)/N=C\c1ccc(OC)cc1OC (stereo not given) | > 300 µM | 67.9 µM (≈ 31.2 µg/mL) | 33.9 µM (≈ 15.6 µg/mL) | 33.9 µM (≈ 15.6 µg/mL) | > 300 µM | > 300 µM | > 300 µM | – | – | – | – | – | – |
| CCCCCCC(C/C=C\CCCCCCCC(=O)OC)/N=C\c1cc(OC)c(O)c(OC)c1 (stereo not given) | > 300 µM | 16.4 µM (≈ 7.8 µg/mL) | 16.4 µM (≈ 7.8 µg/mL) | 16.4 µM (≈ 7.8 µg/mL) | > 300 µM | > 300 µM | > 300 µM | 16.4 µM (≈ 7.8 µg/mL) | 32.8 µM (≈ 15.6 µg/mL) | 16.4 µM (≈ 7.8 µg/mL) | 7.3 µM | 6.5 µM | 8.6 µM |
| CCCCCCC(C/C=C\CCCCCCCC(=O)OC)/N=C\c1ccc(N(C)C)cc1 (stereo not given) | > 300 µM | 17.6 µM (≈ 7.79 µg/mL) | 17.6 µM (≈ 7.79 µg/mL) | 35.2 µM (≈ 15.6 µg/mL) | > 300 µM | > 300 µM | > 300 µM | 17.6 µM (≈ 7.79 µg/mL) | 35.2 µM (≈ 15.6 µg/mL) | 70.5 µM (≈ 31.2 µg/mL) | 9.5 µM | 11.5 µM | 27.8 µM |
| CCCCCCC(C/C=C\CCCCCCCC(=O)OC)/N=C\c1ccc(F)cc1 (stereo not given) | > 300 µM | 150 µM (≈ 62.6 µg/mL) | 150 µM (≈ 62.6 µg/mL) | 150 µM (≈ 62.6 µg/mL) | > 300 µM | > 300 µM | > 300 µM | – | – | – | – | – | – |
| CCCCCCC(C/C=C\CCCCCCCC(=O)OC)/N=C\C=C\c1ccc(N(C)C)cc1 (stereo not given) | > 300 µM | 16.6 µM (≈ 7.78 µg/mL) | 16.6 µM (≈ 7.78 µg/mL) | 33.3 µM (≈ 15.6 µg/mL) | > 300 µM | > 300 µM | > 300 µM | 16.6 µM (≈ 7.78 µg/mL) | 33.3 µM (≈ 15.6 µg/mL) | 66.6 µM (≈ 31.2 µg/mL) | 10.2 µM | 8.1 µM | 21.7 µM |
| CCCCCCC(C/C=C\CCCCCCCC(=O)OC)/N=C\c1ccc(OC)c(OC)c1 (stereo not given) | > 300 µM | 67.9 µM (≈ 31.2 µg/mL) | 33.9 µM (≈ 15.6 µg/mL) | 33.9 µM (≈ 15.6 µg/mL) | > 300 µM | > 300 µM | > 300 µM | 136 µM (≈ 62.5 µg/mL) | 67.9 µM (≈ 31.2 µg/mL) | 33.9 µM (≈ 15.6 µg/mL) | 41.8 µM | 24.4 µM | 21.3 µM |
| CCCCCCC(C/C=C\CCCCCCCC(=O)OC)/N=C\c1ccc(Cl)cc1 (stereo not given) | > 300 µM | 9 µM (≈ 3.91 µg/mL) | 9 µM (≈ 3.91 µg/mL) | 9 µM (≈ 3.91 µg/mL) | > 300 µM | > 300 µM | > 300 µM | 18 µM (≈ 7.81 µg/mL) | 18 µM (≈ 7.81 µg/mL) | 9 µM (≈ 3.91 µg/mL) | 4.8 µM | 4.3 µM | 6 µM |
